# pIC50: −log10 of the molar value. Where a name gives a salt, the structure may show the parent alone.
# Target: human PDE10A (UniProt Q9Y233)
# Assay: Measurement of PDE activity (recombinant enzyme, HTRF cAMP kit)
# Assay type: biochemical
# Settings: Table 1, substrate 20 nM for PDE10, 60 minutes at 29 C, read-out: IC50
# How it was run: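 HTRF detection of cAMP left after hydrolysis, expressed as percent of uninhibited control to derive IC50. Reaction: serially diluted inhibitor mixed with recombinant enzyme, started with 20 nM cAMP, 60 min at 29 °C in Tris-HCl pH 7.5 buffer containing MgCl2 and BSA.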
# Chain of human PDE10A (Q9Y233 290-1055 limits assumed): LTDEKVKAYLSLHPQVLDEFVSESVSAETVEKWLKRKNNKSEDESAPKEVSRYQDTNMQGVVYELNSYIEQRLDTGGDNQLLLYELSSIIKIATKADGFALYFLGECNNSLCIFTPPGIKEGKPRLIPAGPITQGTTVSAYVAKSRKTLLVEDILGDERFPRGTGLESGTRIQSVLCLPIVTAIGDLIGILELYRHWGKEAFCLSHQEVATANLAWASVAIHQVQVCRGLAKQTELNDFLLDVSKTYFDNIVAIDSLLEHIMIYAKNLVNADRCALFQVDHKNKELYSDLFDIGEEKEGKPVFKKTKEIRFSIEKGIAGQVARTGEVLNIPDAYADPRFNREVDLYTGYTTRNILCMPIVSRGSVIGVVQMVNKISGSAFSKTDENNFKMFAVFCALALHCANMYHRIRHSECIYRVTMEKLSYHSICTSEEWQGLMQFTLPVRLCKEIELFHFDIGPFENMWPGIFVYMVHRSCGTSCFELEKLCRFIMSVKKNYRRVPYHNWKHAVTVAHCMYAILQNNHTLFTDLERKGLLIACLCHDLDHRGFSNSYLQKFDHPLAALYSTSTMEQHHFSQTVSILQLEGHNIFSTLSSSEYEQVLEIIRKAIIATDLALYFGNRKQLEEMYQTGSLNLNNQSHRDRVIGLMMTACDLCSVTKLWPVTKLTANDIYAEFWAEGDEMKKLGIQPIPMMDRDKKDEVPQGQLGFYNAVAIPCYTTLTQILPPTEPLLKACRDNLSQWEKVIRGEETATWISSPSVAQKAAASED
row,pIC50,SMILES
1,> 7.00,"N#Cc1ccc(-c2cccc3cnn(CCc4ccc5ccccc5n4)c(=O)c23)cc1 [Example 103, 4-{4-Oxo-3-[2-(quinolin-2-yl)ethyl]-3,4-dihydrophthalazin-5-yl}benzonitrile]"
2,6.70 to 7.00,"COc1ccc(-c2cccc3cnn(CCc4ccc5ccccc5n4)c(=O)c23)cc1 [Example 104, 8-(4-Methoxyphenyl)-2-[2-(quinolin-2-yl)ethyl]phthalazin-1(2H)-one]"
3,6.70 to 7.00,"O=c1c2c(-c3ccc(F)cc3)cccc2cnn1CCc1ccc2ccccc2n1 [Example 105, 8-(4-Fluorophenyl)-2-[2-(quinolin-2-yl)ethyl]phthalazin-1(2H)-one]"
4,> 7.00,"N#CCc1ccc(-c2cccc3cnn(CCc4ccc5ccccc5n4)c(=O)c23)cc1 [Example 106, (4-{4-Oxo-3-[2-(quinolin-2-yl)ethyl]-3,4-dihydrophthalazin-5-yl}phenyl)acetonitrile]"
5,> 7.00,"O=c1c2c(-c3ccc(O)cc3)cccc2cnn1CCc1ccc2ccccc2n1 [Example 107, 8-(4-Hydroxyphenyl)-2-[2-(quinolin-2-yl)ethyl]phthalazin-1(2H)-one]"
6,6.30 to 6.70,"O=c1c2c(-c3ccccc3Cl)cccc2cnn1CCc1ccc2ccccc2n1 [Example 108, 8-(2-chlorophenyl)-2-[2-(quinolin-2-yl)ethyl]phthalazin-1(2H)-one]"
7,6.30 to 6.70,"Cc1ccccc1-c1cccc2cnn(CCc3ccc4ccccc4n3)c(=O)c12 [Example 109, 8-(2-Methylphenyl)-2-[2-(quinolin-2-yl)ethyl]phthalazin-1(2H)-one]"
8,> 7.00,"O=c1c2c(-c3ccccc3F)cccc2cnn1CCc1ccc2ccccc2n1 [Example 111, 8-(2-Fluorophenyl)-2-[2-(quinolin-2-yl)ethyl]phthalazin-1(2H)-one]"
9,6.70 to 7.00,"COc1cccc(-c2cccc3cnn(CCc4ccc5ccccc5n4)c(=O)c23)c1 [Example 113, 8-(3-Methoxyphenyl)-2-[2-(quinolin-2-yl)ethyl]phthalazin-1(2H)-one]"
10,6.70 to 7.00,"N#Cc1cccc(-c2cccc3cnn(CCc4ccc5ccccc5n4)c(=O)c23)c1 [Example 114, 3-{4-Oxo-3-[2-(quinolin-2-yl)ethyl]-3,4-dihydrophthalazin-5-yl}benzonitrile]"
11,> 7.00,"O=c1c2c(-c3cccc(F)c3)cccc2cnn1CCc1ccc2ccccc2n1 [Example 115, 8-(3-Fluorophenyl)-2-[2-(quinolin-2-yl)ethyl]phthalazin-1(2H)-one]"
12,> 7.00,"O=c1c2c(-c3cccc(O)c3)cccc2cnn1CCc1ccc2ccccc2n1 [Example 116, 8-(3-Hydroxyphenyl)-2-[2-(quinolin-2-yl)ethyl]phthalazin-1(2H)-one]"
13,6.70 to 7.00,"CN(C)C(=O)c1cccc(-c2cccc3cnn(CCc4ccc5ccccc5n4)c(=O)c23)c1 [Example 117, N,N-Dimethyl-3-{4-oxo-3-[2-(quinolin-2-yl)ethyl]-3,4-dihydrophthalazin-5-yl}benzamide]"
14,6.30 to 6.70,"O=c1c2c(-c3cccs3)cccc2cnn1CCc1ccc2ccccc2n1 [Example 119, 2-[2-(Quinolin-2-yl)ethyl]-8-(thiophen-2-yl)phthalazin-1(2H)-one]"
15,6.70 to 7.00,"Cc1n[nH]c(C)c1-c1cccc2cnn(CCc3ccc4ccccc4n3)c(=O)c12 [Example 121, 8-(3,5-Dimethyl-1H-pyrazol-4-yl)-2-[2-(quinolin-2-yl)ethyl]phthalazin-1(2H)-one]"
16,6.30 to 6.70,"O=c1c2c(-c3ccc4[nH]ccc4c3)cccc2cnn1CCc1ccc2ccccc2n1 [Example 122, 8-(1H-Indol-5-yl)-2-[2-(quinolin-2-yl)ethyl]phthalazin-1(2H)-one]"
17,6.30 to 6.70,"O=c1c2c(-c3ccc4cc[nH]c4c3)cccc2cnn1CCc1ccc2ccccc2n1 [Example 123, 8-(1H-Indol-6-yl)-2-[2-(quinolin-2-yl)ethyl]phthalazin-1(2H)-one]"
18,> 7.00,"O=c1c2c(-c3cncnc3)cccc2cnn1CCc1ccc2ccccc2n1 [Example 124, 8-(Pyrimidin-5-yl)-2-[2-(quinolin-2-yl)ethyl]phthalazin-1(2H)-one]"
19,6.30 to 6.70,"COc1ncccc1-c1cccc2cnn(CCc3ccc4ccccc4n3)c(=O)c12 [Example 125, 8-(2-Methoxypyridin-3-yl)-2-[2-(quinolin-2-yl)ethyl]phthalazin-1(2H)-one]"
20,> 7.00,"O=c1c2c(-c3cccnc3)cccc2cnn1CCc1ccc2ccccc2n1 [Example 126, 8-(Pyridin-3-yl)-2-[2-(quinolin-2-yl)ethyl]phthalazin-1(2H)-one]"
21,> 7.00,"O=c1c2c(-c3ccoc3)cccc2cnn1CCc1ccc2ccccc2n1 [Example 127, 8-(Furan-3-yl)-2-[2-(quinolin-2-yl)ethyl]phthalazin-1(2H)-one]"
22,6.30 to 6.70,"O=c1c2c(-c3ccc4c(c3)CCO4)cccc2cnn1CCc1ccc2ccccc2n1 [Example 130, 8-(2,3-Dihydro-1-benzofuran-5-yl)-2-[2-(quinolin-2-yl)ethyl]phthalazin-1(2H)-one]"

row,pIC50,SMILES
1,> 7.00,"COc1ccc(-c2cccc3cnn(CCc4ccc5ccccc5n4)c(=O)c23)cn1 [Example 133, 8-(6-Methoxypyridin-3-yl)-2-[2-(quinolin-2-yl)ethyl]phthalazin-1(2H)-one]"
2,> 7.00,"Cc1cc(-c2cccc3cnn(CCc4ccc5ccccc5n4)c(=O)c23)ccn1 [Example 135, 8-(2-Methylpyridin-4-yl)-2-[2-(quinolin-2-yl)ethyl]phthalazin-1(2H)-one]"
3,> 7.00,"COc1cncc(-c2cccc3cnn(CCc4ccc5ccccc5n4)c(=O)c23)c1 [Example 136, 8-(5-Methoxypyridin-3-yl)-2-[2-(quinolin-2-yl)ethyl]phthalazin-1(2H)-one]"
4,> 7.00,"O=c1c2c(-c3cncc(F)c3)cccc2cnn1CCc1ccc2ccccc2n1 [Example 137, 8-(5-Fluoropyridin-3-yl)-2-[2-(quinolin-2-yl)ethyl]phthalazin-1(2H)-one]"
5,6.30 to 6.70,"O=c1c2c(-c3ccc4c(c3)OCO4)cccc2cnn1CCc1ccc2ccccc2n1 [Example 138, 8-(1,3-Benzodioxol-5-yl)-2-[2-(quinolin-2-yl)ethyl]phthalazin-1(2H)-one]"
6,> 7.00,"Cn1cc(-c2cccc3cnn(CCc4ccc5ccccc5n4)c(=O)c23)cn1 [Example 139, 8-(1-Methyl-1H-pyrazol-4-yl)-2-[2-(quinolin-2-yl)ethyl]phthalazin-1(2H)-one]"
7,6.30 to 6.70,"CC(C)Cn1cc(-c2cccc3cnn(CCc4ccc5ccccc5n4)c(=O)c23)cn1 [Example 140, 8-[1-(2-Methylpropyl)-1H-pyrazol-4-yl]-2-[2-(quinolin-2-yl)ethyl]phthalazin-1(2H)-one]"
8,6.30 to 6.70,"O=c1c2c(-c3ccc(F)cc3Cl)cccc2cnn1CCc1ccc2ccccc2n1 [Example 143, 8-(2-Chloro-4-fluorophenyl)-2-[2-(quinolin-2-yl)ethyl]phthalazin-1(2H)-one]"
9,> 7.00,"O=c1c2c(-c3cccc(F)c3F)cccc2cnn1CCc1ccc2ccccc2n1 [Example 147, 8-(2,3-Difluorophenyl)-2-[2-(quinolin-2-yl)ethyl]phthalazin-1(2H)-one]"
10,6.70 to 7.00,"COc1ccc(-c2cccc3cnn(CCc4ccc5ccccc5n4)c(=O)c23)cc1OC [Example 148, 8-(3,4-Dimethoxyphenyl)-2-[2-(quinolin-2-yl)ethyl]phthalazin-1(2H)-one]"
11,6.30 to 6.70,"O=c1c2c(-c3ccc(F)c(F)c3)cccc2cnn1CCc1ccc2ccccc2n1 [Example 149, 8-(3,4-difluorophenyl)-2-[2-(quinolin-2-yl)ethyl]phthalazin-1(2H)-one]"
12,6.30 to 6.70,"COc1cc(OC)cc(-c2cccc3cnn(CCc4ccc5ccccc5n4)c(=O)c23)c1 [Example 152, 8-(3,5-Fimethoxyphenyl)-2-[2-(quinolin-2-yl)ethyl]phthalazin-1(2H)-one]"
13,6.70 to 7.00,"O=c1c2c(-c3cc(F)ccc3F)cccc2cnn1CCc1ccc2ccccc2n1 [Example 153, 8-(2,5-Difluorophenyl)-2-[2-(quinolin-2-yl)ethyl]phthalazin-1(2H)-one]"
14,6.30 to 6.70,"COc1ccc(-c2cccc3cnn(CCc4ccc5ccccc5n4)c(=O)c23)cc1F [Example 154, 8-(3-Fluoro-4-methoxyphenyl)-2-[2-(quinolin-2-yl)ethyl]phthalazin-1(2H)-one]"
15,6.70 to 7.00,"O=c1c2c(-c3cc(F)cc(F)c3)cccc2cnn1CCc1ccc2ccccc2n1 [Example 156, 8-(3,5-Difluorophenyl)-2-[2-(quinolin-2-yl)ethyl]phthalazin-1(2H)-one]"
16,6.30 to 6.70,"COc1cc(F)cc(-c2cccc3cnn(CCc4ccc5ccccc5n4)c(=O)c23)c1 [Example 157, 8-(3-Fluoro-5-methoxyphenyl)-2-[2-(quinolin-2-yl)ethyl]phthalazin-1(2H)-one]"
17,> 7.00,"O=c1c2c(-c3ccccc3)cccc2cnn1CCc1ccc2ccccc2n1 [Example 159, 8-Phenyl-2-[2-(quinolin-2-yl)ethyl]phthalazin-1(2H)-one]"
18,> 7.00,"Cn1nccc1-c1cccc2cnn(CCc3ccc4ccccc4n3)c(=O)c12 [Example 161, 8-(1-Methyl-1H-pyrazol-5-yl)-2-[2-(quinolin-2-yl)ethyl]phthalazin-1(2H)-one hydrochloride]"
19,6.30 to 6.70,"Cc1ccc(-c2cccc3cnn(CCc4ccc5ccccc5n4)c(=O)c23)c(F)c1 [Example 163, 8-(2-Fluoro-4-methylphenyl)-2-[2-(quinolin-2-yl)ethyl]phthalazin-1(2H)-one]"
20,6.30 to 6.70,"O=c1c2c(-c3cccnc3)cccc2cnn1CCc1cn2ccccc2n1 [Example 165, 2-[2-(Imidazo[1,2-a]pyridin-2-yl)ethyl]-8-(pyridin-3-yl)phthalazin-1(2H)-one]"
21,> 7.00,"O=c1c2c(-c3ccncc3)cccc2cnn1CCc1cn2ccccc2n1 [Example 166, 2-[2-(Imidazo[1,2-a]pyridin-2-yl)ethyl]-8-(pyridin-4-yl)phthalazin-1(2H)-one]"
